Legend:
[1] = Plasma ANP immunoreactivity and pharmacokinetics after subcutaneous administration to conscious canines; type: in vivo, canine
Description: (§1) Studies were performed in accordance with the Animal Welfare Act and with approval of the Mayo Clinic Institutional Animal Care and Use Committee. A randomized crossover study was designed in which equimolar (2.225 nmol/kg) SQ M-ANP and SQ ANP were administered to conscious healthy adult canines (n=5) at 2-week intervals. Vehicle (SQ 0.9% normal saline) was administered to 3 canines serving as a control group. At least 7 days prior to the above studies, an arterial port was placed in the femoral artery as previously described (Cataliotti et al. (2008) Circulation, 118:1729-1736). After recovery from arterial port placement, canines were fed a fixed sodium diet of 100 mEq/d with ad libitum access to water for 5 days before initiation of studies. During this time, canines were acclimatized to standing calm in a sling. On the day of the experiment, the dogs were fasted and placed in a sling in a quiet room. Thirty minutes before the beginning of the experiment, the femoral artery port was accessed for continuous BP and heart rate assessment (iWorx, Dover, N.H.). After 30 minutes of acclimatization, the study protocol was started. Subcutaneous M-ANP, ANP or vehicle was administered at time 0 minutes. At time −15, 0, 5, 10, 15, 30, 45, 60, 75, 90, 120, 150, 180, 210, 240, 270, and 300 minutes, mean arterial pressure (MAP) and heart rate samples were obtained over a period of 1 minute. […]
(§2) Blood samples were collected in chilled EDTA tubes, immediately placed on ice, and centrifuged at 4° C. […] After extraction, plasma ANP immunoreactivity (Phoenix Pharmaceuticals, Burlingame, Calif.) was assessed by radioimmunoassay as previously described (Burnett et al. (1986) Science, 231:1145-1147). […] Plasma cGMP (PerkinElmer, Waltham, Mass.) was assessed by radioimmunoassay (Steiner et al., supra).
(§3) Pharmacokinetic profile of M-ANP compared to ANP was determined using PK Solutions software (Summit PK, Montrose, Colo.). Specific parameters that were determined included plasma half-life, maximum concentration (Cmax) and area under the curve (AUC).

cGMP = test: Plasma cGMP after subcutaneous administration to conscious canines; type: in vivo, canine
Description: as §1, §2, §3

[2] = Mean arterial pressure and heart rate after subcutaneous administration to conscious canines; type: in vivo, canine; conditions: SQ
Description: as §1

[3] = infusion of a low dose, normal dogs; cited from earlier work
[4] = plasma cGMP, subcutaneous, equimolar 2.225 nmol/kg, conscious canines

- time ANP immunoreactivity remained significantly elevated ([1]; SQ, canines): 45 min
- time of peak ANP immunoreactivity after administration ([1]; SQ, canines): 15 min
- ANPi AUC ([1]; subcutaneous, equimolar 2.225 nmol/kg, conscious canines): 10.8 ± 2.4 pmol·min/mL
Structure (SMILES): CC[C@H](C)[C@@H]1NC(=O)[C@H](CCCNC(=N)N)NC(=O)[C@H](CC(=O)O)NC(=O)[C@H](CCSC)NC(=O)[C@H](CCCNC(=N)N)NC(=O)CNC(=O)CNC(=O)[C@H](Cc2ccccc2)NC(=O)[C@@H](NC(=O)[C@H](CO)NC(=O)[C@H](CO)NC(=O)[C@H](CCCNC(=N)N)NC(=O)[C@H](CCCNC(=N)N)NC(=O)[C@H](CC(C)C)NC(=O)[C@@H](N)CO)CSSC[C@@H](C(=O)N[C@@H](CC(N)=O)C(=O)N[C@@H](CO)C(=O)N[C@@H](Cc2ccccc2)C(=O)N[C@@H](CCCNC(=N)N)C(=O)N[C@@H](Cc2ccc(O)cc2)C(=O)O)NC(=O)CNC(=O)[C@H](CC(C)C)NC(=O)CNC(=O)[C@H](CO)NC(=O)[C@H](CCC(N)=O)NC(=O)[C@H](C)NC(=O)CNC1=O [ANP]
- duration of sustained cGMP activation (cGMP; SQ, canines): 60 min
- cGMP AUC (cGMP; [4]): 676 ± 211 pmol·min/mL
- cGMP Cmax (cGMP; [4]): 14.7 ± 1.9 pmol/mL
- effect on MAP [2]: no significant reduction in MAP
- change in glomerular filtration rate (GFR) or MAP [3]: No change

Source: US20140066367A1, “SUBCUTANEOUS DELIVERY OF A LONG-ACTING NATRIURETIC PEPTIDE” (Mayo Foundation for Medical Education and Research, priority 2012, published 2014)
